Our source for the relative viability values is the supplement of paper PMC10307832.

Assay in all cases: relative viability (nuclei count vs DMSO), 5 days (fraction); higher = more cells survive
Compound in the assay “IPA-3 + OSI-027”: C1=CC=C2C(=C1)C=CC(=C2SSC3=C(C=CC4=CC=CC=C43)O)O [IPA-3] + COc1cccc2cc(-c3nc([C@H]4CC[C@H](C(=O)O)CC4)n4ncnc(N)c34)[nH]c12 [OSI-027] (partner 0.5 µM)
The method in brief: (§1)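 Nuclei were stained with Hoechst during a one-step fixation (final 0.05% Triton X-100, 1% formaldehyde, 1 ug/ml Hoechst) carried out 5 days after dosing, then counted on 4× images. The cells, lung cancer lines in 1536-well plates, had been dosed by pin tool the day after seeding with one drug alone or a fixed anchor-drug dose plus five library-drug doses (not always all listed) in √10 steps. Relative viability is the nuclei count in treated wells divided by that in vehicle wells, and each value is the median of duplicate plates.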

Compound in the assay “Doramapimod + Foretinib”: Cc1ccc(-n2nc(C(C)(C)C)cc2NC(=O)Nc2ccc(OCCN3CCOCC3)c3ccccc23)cc1 [Doramapimod] + COc1cc2c(Oc3ccc(NC(=O)C4(C(=O)Nc5ccc(F)cc5)CC4)cc3F)ccnc2cc1OCCCN1CCOCC1 [Foretinib] (partner 0.25 µM)
The method in brief:
as §1

Compound in the assay “Doramapimod + Pictilisib”: Cc1ccc(-n2nc(C(C)(C)C)cc2NC(=O)Nc2ccc(OCCN3CCOCC3)c3ccccc23)cc1 [Doramapimod] + CS(=O)(=O)N1CCN(Cc2cc3nc(-c4cccc5[nH]ncc45)nc(N4CCOCC4)c3s2)CC1 [Pictilisib] (partner 1 µM)
The method in brief:
as §1

Compound in the assay “RAF265 + Foretinib”: Cn1c(Nc2ccc(C(F)(F)F)cc2)nc2cc(Oc3ccnc(-c4ncc(C(F)(F)F)[nH]4)c3)ccc21 [RAF265] + COc1cc2c(Oc3ccc(NC(=O)C4(C(=O)Nc5ccc(F)cc5)CC4)cc3F)ccnc2cc1OCCCN1CCOCC1 [Foretinib] (partner 0.25 µM)
The method in brief: as §1

For the cell line UMC-11, the relative viability with IPA-3 + OSI-027 (first compound 0.2 µM) is 0.5; in the assay with IPA-3 + OSI-027 (first compound 0.6325 µM), 0.49; with IPA-3 + OSI-027 (first compound 2 µM) it was 0.426; with IPA-3 + OSI-027 (first compound 6.325 µM), 0.458; with IPA-3 + OSI-027 (first compound 20 µM) it was 0.502; in the assay with Doramapimod + Foretinib (first compound 0.02 µM) it was 0.954. Further, the relative viability in the assay with Doramapimod + Foretinib (first compound 0.06325 µM) came to 0.936; with Doramapimod + Foretinib (first compound 0.2 µM), 0.932; with Doramapimod + Foretinib (first compound 0.6325 µM) it was 0.988; with Doramapimod + Foretinib (first compound 2 µM) it was 0.982; with Doramapimod + Pictilisib (first compound 0.02 µM), 0.726; in the assay with Doramapimod + Pictilisib (first compound 0.06325 µM), 0.759. Also, the relative viability in the assay with Doramapimod + Pictilisib (first compound 0.2 µM) was 0.726; with Doramapimod + Pictilisib (first compound 0.6325 µM), 0.547; in the assay with Doramapimod + Pictilisib (first compound 2 µM), 0.615; with RAF265 + Foretinib (first compound 0.01 µM), 1.02; with RAF265 + Foretinib (first compound 0.03162 µM), 1.05; with RAF265 + Foretinib (first compound 0.1 µM), 0.972. The relative viability with RAF265 + Foretinib (first compound 0.3162 µM) turned out to be 0.992; with RAF265 + Foretinib (first compound 1 µM), 0.926.
